Our source for the melting point values is US7223791B2, “Function regulator for retinoid relative receptor” (Takeda Pharmaceutical Company Limited, priority 2001, dated 2007).

By melting point is commonly meant the temperature, or range, at which the solid turns liquid. `COC(=O)c1ccc(-c2nc(-c3ccc(Cl)cc3)no2)c(N)c1` [Example 75, methyl 3-amino-4-[3-(4-chlorophenyl)-1,2,4-oxadiazol-5-yl]benzoate] returned a melting point of 227 to 228 °C.
As for `CCOC(=O)c1ccc(-c2ccc(-c3ccc(Cl)cc3)s2)cc1` [Example 13, ethyl 4-[5-(4-chlorophenyl)-2-thienyl]benzoate], the melting point was 167 to 168 °C.
Next, `CC(C)(C)c1ccc(-c2nnc(-c3ccc(C(=O)O)cc3N)o2)cc1` [Example 72, 3-amino-4-[5-(4-t-butylphenyl)-1,3,4-oxadiazol-2-yl]benzoic acid]: 266 to 268 °C; `O=C(OCc1ccccc1)c1cc(-c2ccc(-c3ccc(C(F)(F)F)cc3)o2)ccc1OCc1ccccc1` [Example 11, benzyl 2-benzyloxy-5-[5-(4-trifluoromethylphenyl)-2-furyl]benzoate]: 97 to 98 °C; `Nc1cc(C(=O)O)ccc1-c1nc(-c2ccc(C(F)(F)F)cc2)no1` [Example 66, 3-amino-4-[3-(4-trifluoromethylphenyl)-1,2,4-oxadiazol-5-yl]benzoic acid]: > 300 °C.
`COC(=O)c1ccc(-c2nc(-c3ccc(C(F)(F)F)cc3)no2)cc1` [Example 40, methyl 4-[3-(4-trifluoromethylphenyl)-1,2,4-oxadiazol-5-yl]benzoate]: the melting point is 177 to 178 °C.
With `COC(=O)c1ccc(-c2cc(-c3ccccc3)on2)cc1` [Example 21, methyl 4-(5-phenyl-3-isoxazolyl)benzoate], the melting point was 201 to 202 °C.
Consider `O=Cc1cccc(-c2cc(-c3ccc(C(F)(F)F)cc3)no2)c1` [Example 82, 3-[3-(4-trifluoromethylphenyl)-5-isoxazolyl]benzaldehyde], for which the melting point lay in the range of 151 to 152 °C.
In the case of `CCOC(=O)c1ccc(-c2ccc(-c3ccc(C(F)(F)F)cc3)n2C)cc1` [Example 3, ethyl 4-[1-methyl-5-(4-trifluoromethylphenyl)-2-pyrrolyl]benzoate], the melting point lay within 150 to 151 °C.
As for `COC(=O)c1ccc(-c2nc(-c3ccc(C(C)(C)C)cc3)no2)c(N)c1` [Example 74, methyl 3-amino-4-[3-(4-t-butylphenyl)-1,2,4-oxadiazol-5-yl]benzoate], the melting point lay in the range of 195 to 196 °C.
For the compound `CCOC(=O)c1ccc(-c2nc(-c3ccccc3)ccc2Cl)cc1` [Example 1, ethyl 4-(3-chloro-6-phenyl-2-pyridyl)benzoate], the melting point is 81 to 82 °C.
As to `CCOC(=O)c1ccc(-c2ccc(-c3ccc(C(F)(F)F)cc3)s2)cc1` [Example 14, ethyl 4-[5-(4-trifluoromethylphenyl)-2-thienyl]benzoate], the melting point is 203 to 204 °C.
Next, `COC(=O)c1ccc(-c2cc(-c3ccc(Cl)cc3)on2)cc1` [Example 23, methyl 4-[5-(4-chlorophenyl)-3-isoxazolyl]benzoate]: 225 to 226 °C; `O=Cc1cccc(-c2nnc(-c3ccc(C(F)(F)F)cc3)o2)c1` [Example 80, 3-[5-(4-trifluoromethylphenyl)-1,3,4-oxadiazol-2-yl]benzaldehyde]: 129 to 130 °C.
For `O=C(O)c1ccc(-c2nnc(-c3ccc(C(F)(F)F)cc3)o2)c([N+](=O)[O-])c1` [Example 69, 3-nitro-4-[5-(4-trifluoromethylphenyl)-1,3,4-oxadiazol-2-yl]benzoic acid], the melting point lay within 254 to 255 °C.
Take `COC(=O)c1cccc(-c2cc(-c3ccccc3)on2)c1` [Example 20, methyl 3-(5-phenyl-3-isoxazolyl)benzoate]: the melting point was in the range of 99 to 100 °C.
`COC(=O)c1ccc(-c2nc(-c3ccccc3)n(C)n2)cc1` [Example 37, methyl 4-(1-methyl-5-phenyl-1H-1,2,4-triazol-3-yl)benzoate]: the melting point lay in the range of 167 to 168 °C.
As to `O=C(O)c1ccc(-c2nnc(-c3ccccc3[N+](=O)[O-])o2)cc1` [Example 52, 4-[5-(2-nitrophenyl)-1,3,4-oxadiazol-2-yl]benzoic acid], the melting point is 239 to 240 °C.
In the case of `COC(=O)c1ccc(-c2nc(-c3ccc(Oc4ccccc4)cc3)no2)cc1` [Example 41, methyl 4-[3-(4-phenoxyphenyl)-1,2,4-oxadiazol-5-yl]benzoate], the melting point lay in the range of 112 to 113 °C.
In the case of `CCOC(=O)c1ccc(-c2nnc(-c3ccccc3[N+](=O)[O-])o2)cc1` [Example 53, ethyl 4-[5-(2-nitrophenyl)-1,3,4-oxadiazol-2-yl]benzoate] it was 127 to 128 °C; in that of `O=C(O)c1ccc(-c2nnc(-c3ccc(C(F)(F)F)cc3)o2)cc1` [Example 49, 4-[5-(4-trifluoromethylphenyl)-1,3,4-oxadiazol-2-yl]benzoic acid], > 300 °C; in that of `O=C(O)c1ccc(-c2nc(-c3ccc(Oc4ccccc4)cc3)no2)cc1` [Example 43, 4-[3-(4-phenoxyphenyl)-1,2,4-oxadiazol-5-yl]benzoic acid], 278 to 279 °C.
Next, `O=C(O)c1ccc(-c2cc(-c3ccc(Cl)cc3)no2)cc1` [Example 25, 4-[3-(4-chlorophenyl)-5-isoxazolyl]benzoic acid]: > 300 °C; `O=Cc1ccc(-c2nnc(-c3ccccc3[N+](=O)[O-])o2)cc1` [Example 81, 4-[5-(2-nitrophenyl)-1,3,4-oxadiazol-2-yl]benzaldehyde]: 189 to 190 °C.
Compound `COC(=O)c1ccc(-c2cc(-c3ccccc3)no2)cc1` [Example 17, methyl 4-(3-phenyl-5-isoxazolyl)benzoate] came in with a melting point of 205 to 206 °C.
In turn, `COC(=O)c1ccc(-c2nc(-c3ccc(C(F)(F)F)cc3)no2)c(NC(=O)C(F)(F)F)c1` [Example 65, methyl 3-trifluoroacetylamino-4-[3-(4-trifluoromethylphenyl)-1,2,4-oxadiazol-5-yl]benzoate] gave a melting point of 188 to 189 °C.
Next, `O=C(O)c1ccccc1-c1ccc(-c2ccc(C(F)(F)F)cc2)o1` [Example 8, 2-[5-(4-trifluoromethylphenyl)-2-furyl]benzoic acid]: 182 to 183 °C.
`COC(=O)c1ccc(-c2cc(-c3ccc(Cl)cc3)no2)cc1` [Example 18, methyl 4-[3-(4-chlorophenyl)-5-isoxazolyl]benzoate] yielded a melting point of 225 to 226 °C.
For the compound `COC(=O)c1ccc(-c2nnc(-c3ccccc3)o2)cc1` [Example 45, methyl 4-(5-phenyl-1,3,4-oxadiazol-2-yl)benzoate], the melting point was in the range of 172 to 173 °C.
As for `CCOC(=O)c1ccc(-c2nnc(-c3ccccc3N)o2)cc1` [Example 54, ethyl 4-[5-(2-aminophenyl)-1,3,4-oxadiazol-2-yl]benzoate], the melting point lay within 174 to 175 °C.
`O=C(O)c1ccc(-c2cc(-c3ccccc3)no2)cc1` [Example 24, 4-(3-phenyl-5-isoxazolyl)benzoic acid]: the melting point was > 300 °C.
As to `Cn1nc(-c2ccc(C(=O)O)cc2)nc1-c1ccccc1` [Example 39, 4-(1-methyl-5-phenyl-1H-1,2,4-triazol-3-yl)benzoic acid], the melting point was in the range of 243 to 244 °C.
For the compound `COC(=O)c1ccc(-c2n[nH]c(-c3ccccc3)n2)cc1` [Example 36, methyl 4-(5-phenyl-1H-1,2,4-triazol-3-yl)benzoate], the melting point is 243 to 244 °C.
